Results published in patent US4393055A, “Hydroxyalkyl ether derivatives of rutin poly(H-)sulfate and method of use” (American Cyanamid Company, priority 1982, dated 1983).
Values joined by “and” are separate entries in the source; they are usually repeats but may differ in a detail not shown here. Equal values may be shown once. Where a name gives a salt, the structure may show the parent alone.

Tests used:
activated human C1 = activated human C1 (Homo sapiens, UniProt P09871); experiment: Test Code 026 (C1 inhibitor); format: biochemical; conditions: twofold serial dilutions; higher well number indicates higher activity
Protocol: (§1) An active inhibitor protects C2 from C1 and C4; (ii) Cap 50 Test--Here, appropriate amounts of the test compound are added to a pool of guinea pig serum in vitro, after which the undiluted serum capillary tube assay referred to above is run. The concentration of compound inhibiting 50% is reported; and (iii) Guinea Pig Intraperitoneal Test (GPIP)--Guinea pigs weighing about 300 g. are dosed intraperitoneally (i.p.) with 200 mg./kg. of the test compound dissolved in saline and adjusted to pH 7-8. Approximately 0.4 ml. blood samples, taken by orbital sinus puncture 30 minutes and one hour after injections, are collected directly into centrifuge tubes; 5 ml. blood samples, taken by decapitation 2 hours after injection are collected directly into beakers. The samples are allowed to clot, centrifuged, and the resultant sera are assayed for complement activity using the capillary complement assay. Percent inhibition are calculated by comparison with simultaneous controls.

[1] = test system: complement activity of sera; experiment: Guinea Pig Intraperitoneal Test (GPIP); format: in vivo; conditions: 200 mg./kg. i.p.
Protocol: as §1, with “[…],” for “taken by orbital sinus puncture 30 minutes and one hour after injections,”, “taken by decapitation 2 hours after injection are collected directly into” left out

[2] = test system: total hemolytic complement activity; conditions: in vitro and in vivo; judged by reduction in total hemolytic complement activity; cited from earlier work

Chain of activated human C1 (P09871 16-437 limits assumed): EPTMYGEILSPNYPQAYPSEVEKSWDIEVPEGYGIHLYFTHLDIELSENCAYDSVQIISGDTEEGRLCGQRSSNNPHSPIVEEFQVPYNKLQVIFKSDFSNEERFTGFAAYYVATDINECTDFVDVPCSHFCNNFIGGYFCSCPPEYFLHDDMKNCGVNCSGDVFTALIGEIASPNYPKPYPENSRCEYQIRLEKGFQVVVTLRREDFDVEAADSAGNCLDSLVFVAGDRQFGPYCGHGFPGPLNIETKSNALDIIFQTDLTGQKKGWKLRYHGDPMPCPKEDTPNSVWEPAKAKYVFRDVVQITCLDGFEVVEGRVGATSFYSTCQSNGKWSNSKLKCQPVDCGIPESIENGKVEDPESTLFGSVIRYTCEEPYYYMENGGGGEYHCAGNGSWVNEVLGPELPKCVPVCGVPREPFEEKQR
Chain of activated human C1 (P09871 438-688 limits assumed): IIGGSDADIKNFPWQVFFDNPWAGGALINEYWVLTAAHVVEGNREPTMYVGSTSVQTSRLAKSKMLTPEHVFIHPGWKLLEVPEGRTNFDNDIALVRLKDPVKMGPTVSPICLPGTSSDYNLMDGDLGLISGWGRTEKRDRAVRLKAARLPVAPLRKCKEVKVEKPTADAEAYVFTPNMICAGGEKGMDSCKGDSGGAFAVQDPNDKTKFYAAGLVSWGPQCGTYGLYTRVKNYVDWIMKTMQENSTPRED
Chain of activated human C1 (P00736 18-463 partner limits assumed): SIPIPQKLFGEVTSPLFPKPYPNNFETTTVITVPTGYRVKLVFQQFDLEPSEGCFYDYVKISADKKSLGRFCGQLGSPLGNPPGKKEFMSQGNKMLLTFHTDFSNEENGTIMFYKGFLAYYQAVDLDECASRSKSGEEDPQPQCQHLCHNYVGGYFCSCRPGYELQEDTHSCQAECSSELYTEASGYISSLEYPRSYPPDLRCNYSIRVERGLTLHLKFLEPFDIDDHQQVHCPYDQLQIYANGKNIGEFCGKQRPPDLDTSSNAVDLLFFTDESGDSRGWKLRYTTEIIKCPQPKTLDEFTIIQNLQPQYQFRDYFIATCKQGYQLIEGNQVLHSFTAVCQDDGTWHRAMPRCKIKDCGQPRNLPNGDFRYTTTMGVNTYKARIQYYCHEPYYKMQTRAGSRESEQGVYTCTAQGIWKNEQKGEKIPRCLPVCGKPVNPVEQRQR
Chain of activated human C1 (P00736 464-705 partner limits assumed): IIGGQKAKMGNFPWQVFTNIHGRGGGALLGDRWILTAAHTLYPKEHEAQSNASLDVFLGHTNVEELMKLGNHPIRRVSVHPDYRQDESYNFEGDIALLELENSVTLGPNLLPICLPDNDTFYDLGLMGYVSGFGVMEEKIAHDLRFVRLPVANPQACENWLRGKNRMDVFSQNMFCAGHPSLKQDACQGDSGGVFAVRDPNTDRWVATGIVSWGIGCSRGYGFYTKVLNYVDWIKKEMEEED

With `C[C@@H]1O[C@@H](OC[C@H]2O[C@@H](Oc3c(-c4ccc(OCCOS(=O)(=O)O)c(OCCOS(=O)(=O)O)c4)oc4cc(OCCOS(=O)(=O)O)cc(OS(=O)(=O)O)c4c3=O)[C@H](OS(=O)(=O)O)[C@@H](OS(=O)(=O)O)[C@@H]2OS(=O)(=O)O)[C@H](OS(=O)(=O)O)[C@H](OS(=O)(=O)O)[C@H]1OS(=O)(=O)O` [3',4',7-Tris(2-hydroxyethyl)rutin, deca(H-sulfate)sodium salt] the “In vitro Activity 026 (activity in wells, serial dilution assay)” value (activated human C1) was 7-10 wells and the “In vivo Activity (Guinea Pig) Intraperitoneal % Inhibition” value ([1]; Time (hours) 6) was 48% and 82%.

For `C[C@@H]1O[C@@H](OC[C@H]2O[C@@H](Oc3c(-c4ccc(OS(=O)(=O)O)c(OS(=O)(=O)O)c4)oc4cc(OCCOS(=O)(=O)O)cc(OS(=O)(=O)O)c4c3=O)[C@H](OS(=O)(=O)O)[C@@H](OS(=O)(=O)O)[C@@H]2OS(=O)(=O)O)[C@H](OS(=O)(=O)O)[C@H](OS(=O)(=O)O)[C@H]1OS(=O)(=O)O` [7-(2-hydroxyethyl)rutin, deca(H-sulfate)sodium salt], the “In vitro Activity 026 (activity in wells, serial dilution assay)” value (activated human C1) was 6-12 wells, the “In vivo Activity (Guinea Pig) Intraperitoneal % Inhibition” value ([1]; Time (hours) 4) was 88% and the “In vivo Activity (Guinea Pig) Intraperitoneal % Inhibition” value ([1]; Time (hours) 6) was 71%. For the same compound, the “In vivo Activity (Guinea Pig) Intraperitoneal % Inhibition” value ([1]; Time (hours) 24) was 20%.

For `C[C@@H]1O[C@@H](OC[C@H]2O[C@@H](Oc3c(-c4ccc(OS(=O)(=O)O)c(OS(=O)(=O)O)c4)oc4cc(OCCOS(=O)(=O)O)cc(O)c4c3=O)[C@H](OS(=O)(=O)O)[C@@H](OS(=O)(=O)O)[C@@H]2OS(=O)(=O)O)[C@H](OS(=O)(=O)O)[C@H](OS(=O)(=O)O)[C@H]1OS(=O)(=O)O` [7-(2-hydroxyethyl)rutin, nona(H-sulfate)sodium salt], the “In vitro Activity 026 (activity in wells, serial dilution assay)” value (activated human C1) was 9-12 wells, the “In vivo Activity (Guinea Pig) Intraperitoneal % Inhibition” value ([1]; Time (hours) 4) was 86% and the “In vivo Activity (Guinea Pig) Intraperitoneal % Inhibition” value ([1]; Time (hours) 6) was 71%. The “In vivo Activity (Guinea Pig) Intraperitoneal % Inhibition” value ([1]; Time (hours) 24) was 35%.

In the case of pentosanpolysulfoester, the “anticomplementary activity on human serum” value [2] is listed as “has an anticomplementary activity on human serum, both in vitro and in vivo”.
